The values below come from US5336485A, “Method for protecting animals against tacrine induced cytotoxic injury using sterol compounds” (priority 1993, dated 1994).

The test system of series [1] is rat hepatocytes. In words: EMS-induced cytotoxicity (LDH leakage/cell death) in rat hepatocyte suspensions. The note with it: for inhibition at 25 µM: Rattus norvegicus, Hepatocyte, 5 h.
Series [2] has as its system rat hepatocytes. Description: EMS-induced lipid peroxidation in rat hepatocyte suspensions. The series is classed as cell-based. The note with it: 50 mM EMS, 5 Hrs; concentrations as cell death (Table 15).
The test system of the next series is male Sprague-Dawley rats. In words: CCl4 induced lethality in rats. The series is classed as in vivo, rat. As to conditions: for Days Survived After CCl4 Treatment: 100 mg/kg, single dose 24 h prior.
The subject of series [3] is liver. In words: CCl4 induced hepatotoxicity in rats (serum AST/ALT). The series is classed as in vivo, rat. The note with it: 100 mg/kg ip 20 h prior, listed as Cholesteryl Succinate free acid. In a few lines: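 Male Sprague-Dawley rats received test compounds i.p. at 100 mg/kg 20–24 h before oral CCl4 (2.9 g/kg or 1 g/kg). Serum AST and ALT were measured 48 h after CCl4 challenge.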

In the next series the test system is CDF1 mice. In words: Doxorubicin lethality in CDF1 mice (normal tissue). The note with it: 100 mg/kg ip 20 h prior, DOX 10, 15, 20, 25 mg/kg. The series is classed as in vivo, mouse. On the procedure:
The experiments were conducted in accordance with NCI Protocol 1,100. FIGS. 8a-d show the experimental results obtained when male CDF1 mice (n=6) received either vehicle only or 100mg/kg body weight i.p. dose of either alpha-TS or cholesteryl succinate 20 hours prior to DOX administration. FIGS. 8a-d respectively show the results obtained when the mice received 10, 15, 20, and 25 mg DOX/kg body weight. […] FIGS. 9a-d show the experimental results obtained when male CDF1 mice ([…]) were injected (i.p.) with 10^6 murine L1210 leukemia cells followed immediately by an injection of alpha-TS tris salt (100 mg/kg, i.p.) or saline injection (vehicle), and twenty hours later (Day=0) each mouse in three of the groups was i.p. injected with 15, 20, or 25 mg DOX/kg body weight ([…]). Survival was monitored for twenty days.

Series [4] concerns liver. In words: THA-induced hepatotoxicity in rats (serum AST). The series is classed as in vivo, rat. As to conditions: 100 mg/kg ip.
Experimental: FIGS. 10 and 11 show the results of in vivo experiments where male Sprague-Dawley rats were given an oral dose of 15 or 30 mg THA/kg body weight, respectively. […] The serum AST levels were determined with respect to time after the THA challenge.
The subject of series [5] is rat hepatocytes. Description: ATP content of rat hepatocyte suspensions. The note with it: 25 μM. The series is classed as cell-based. The text has this:
It is well known that the succinate molecule is utilized by the cell to produce ATP energy. In the tricarboxylic acid cycle, succinate is oxidized by succinate dehydrogenase to produce ATP. Oxidation occurs in the mitochondria and the mitochondria can utilize both succinate formed in the mitochondria or succinate transported to the mitochondria. Increasing ATP production may enhance cellular repair processes as well as normal metabolic processes. For example, the cell's ability to remove free intracellular Ca^2+ during a toxic insult is related to ATP production. Succinate administration stimulates gluconeogenesis to form glucose 6-phosphate which is used for producing energy anaerobically (ATP formation through glycolysis) and for producing reducing equivalents (NADPH formation through the hexose monophosphate shunt needed for lipid and nucleotide biosynthesis and other biosynthetic reductions and enzymatic reactions, e.g., glutathione reductase). An in vitro experiment was conducted to determine the relationship between the release of succinate from alpha-TS and the cellular ATP level. The experiment was performed by incubating a tocopherol analog in a rat hepatocyte suspension and measuring the ATP level at the beginning and end of the test.
Rat hepatocyte suspensions were subjected to 50 mM EMS and the percentage of cell death, the percentage of intracellular K^+ (a metabolic parameter as discussed above), the depletion of ATP and the effect on lipid peroxidation were monitored.

Another series deals with L1210 leukemia cells. The note with it: mouse, in vivo.
Series [6] deals with gluconeogenesis or ATP production. As to conditions: cited from earlier work.
Series [7] concerns isolated rat liver mitochondria. As to conditions: 6 mM succinate; cited from earlier work.
The subject of another series is rat. The note with it: in vivo, ip, 100 mg/kg.

Read-outs that look alike come from different tables or passages of the source. A value given as a limit tells only on which side of the number the result lay.

For the compound `CC(C)CCC[C@@H](C)[C@H]1CC[C@H]2[C@@H]3CC=C4C[C@@H](OC(=O)CCC(=O)O)CC[C@]4(C)[C@H]3CC[C@]12C` [Cholesteryl Succinate], the “Cell Death” value in the series with rat hepatocytes [1] (50 mM EMS, 5 Hrs, alpha-TS 25, methyl ester 50, cholesteryl succinate 100, monomethyl/dimethyl succinate 250 μM) stood at 48 ± 4%. Besides, the inhibition at 25 µM in the series with rat hepatocytes [1] (read-out: Percent Cytoprotection) worked out at 30 ± 22%. In addition, the “Lipid Peroxidation” value in the series on rat hepatocytes [2] was found to be 11.3 ± 4.2 nmolMDA/10^6 cells. The “Days Survived After CCl4 Treatment” value in the series with male Sprague-Dawley rats is over 7 days. The “Serum AST Levels” value is 1.84 ± 1.13 10^3 units/L in the series on liver [3] (24 hrs after 2 g/kg CCl4 (Table 26)) and 1.90 ± 2.64 10^3 units/L in the series with liver [3] (48 hrs after 2 g/kg CCl4 (Table 26)). The “survival after DOX, normal mice (FIGS. 8a-d)” value in the series on CDF1 mice is recorded as “survived significantly longer”. Also, the “protection against THA hepatotoxicity (FIG. 10)” value with liver [4] (THA 15 mg/kg) is “protects against the hepatotoxicity resulting from THA”. Further, in the series on liver [4] (THA 30 mg/kg), the “protection against THA hepatotoxicity (FIG. 11)” value is listed as “protects against the hepatotoxicity resulting from THA”.

Regarding `O=C(O)CCC(=O)O` [Succinic Acid, reference compound], the inhibition at 25 µM in the series on rat hepatocytes [1] (read-out: Percent Cytoprotection, 25 μM, 50 mM EMS, 5 h) was 0%. In addition, in the series on male Sprague-Dawley rats (100 mg/kg ip 24 h prior, […] CCl4 oral), the “Survival after CCl4 treatment” value was “No”. The “Days Survived After CCl4 Treatment” value in the series on male Sprague-Dawley rats stood at 2 days. Further, the “cytoprotection (Table 7, in words)” value in the series with male Sprague-Dawley rats (rat, in vivo) is “not cytoprotective”. In addition, the “Rate of ATP Depletion” value in the series on rat hepatocytes [5] is listed as 1.8 ± 0.2 nmoles/10^6 cell/hr. Further, the “Cellular ATP” value was 15.7 ± 1.3 nmoles/10^6 cells in the series on rat hepatocytes [5] (0 Hr) and 4.9 ± 0.6 nmoles/10^6 cells in the series with rat hepatocytes [5] (6 Hr). Also, the “Survival time (footnote)” value in the series on L1210 leukemia cells was “identical for succinate and vehicle treated”. In addition, the “concentration required to stimulate gluconeogenesis or ATP production” value in series [6] was “Millimolar concentrations”. Moreover, the “increase of Ca2+ capacity and Ca2+ retention of mitochondria” value in series [7] is on record as “five to seven”.

As to `CC(C)(C(=O)c1cccnc1)c1cccnc1` [Metyrapone], the “Sleeping Time” value in the series on rat stood at 900 ± 120 min.
